Test results published in patent publication US9549911B2, “Ginger metabolites and uses thereof” (North Carolina A&T State University, priority 2012, dated 2017).
Read-outs that look alike come from different tables or passages of the source.

Columns and labels:
[1] = test system: IMR90 normal human lung cells; assay: MTT cell viability (Part 4); type: cell-based; settings: read-out: IC50 (toxicity, MTT)
[2] = test system: A549 cells; assay: Cell Death Detection ELISA apoptosis (Part 4); type: cell-based, human; settings: A549, 20 μM, 24 hours; for enrichment factor (small nucleosomes, ELISA): with pft
Description: The Cell Death Detection ELISA (Enzyme-linked immunoabsorbant assay) Plus kit from Roche (Mannheim, Germany) was used. […] After 24 hours, the microplate was centrifuged for 10 minutes at 1200 rpm, and the supernatant was removed. 200 μl of the lysis buffer was added in each well and incubated for 30 minutes at room temperature. The plate was then centrifuged for 10 minutes at 1200 rpm and 20 μl of the supernatant was transferred to streptavidin-coated micro-wells. ELISA assay was performed according to manufacturer's instruction. Absorbance in each well was measured at 405 nm in absorbance units (AU), and the enrichment factor (EF) in small nucleosomes was calculated with the formula EF=AU treated/AU DMSO.

[3] = test system: A549 cells; assay: Intracellular glutathione (GSH, GSH/GSSG) measurement; type: cell-based, human; settings: A549, 10 μM
Description: The total GSH content was measured using a HT Glutathione Assay kit (Trevigen, Galthersburg, Md.). Briefly A549 cells were plated in 60×15 mm culture plates and were allowed to attach overnight at 37° C. Cells were treated with 10 μM M2 and incubated for 0, 2, 4, 8, or 24 hours. Cells were harvested and proteins were precipitated with 5% (w/v) metaphosphoric acid. Samples were then processed following the manufacturer's instructions. The measurement of the absorbance of 5-thio-2-nitrobenzoic acid (TNB) at 405 nm was used to quantify glutathione levels in each sample, which was then compared to the standard curve and corrected for protein concentration.
For measurement of oxidized glutathione (Glutathione Disulfide or GSSG), samples and GSSG standards were treated with 2M 4-vinylpyridine (1 μL/50 μL sample) at room temperature for one hour. 4-Vinylpyridine (Sigma Aldrich, St. Louis, Mo.) blocks free thiols present in the reaction, consequentially blocking the formation of new GSSG by GSH. The 2M solution was freshly prepared by diluting 4-vinylpyridine in ethanol in a ratio of approximately 1:3.6. After incubation, samples were processed using the Trevigen kit's protocol and absorbance was measured at 405 nm as described herein.
The quantity of reduced cellular glutathione (or GSH) is obtained by subtracting the oxidized samples values from the total glutathione values or: GSH(reduced)=GSH(total)−GSSG(oxidized). Ratios of reduced to oxidized glutathione are shown to further represent cellular redox status after treatment with 6S or M2.

[4] = test system: human lung fibroblast cells IMR-90; assay: in vitro; type: cell-based
Description: (§1) Growth inhibition of human cancer and normal cells. Cell growth inhibition was determined by a MTT colorimetric assay. Human colon cancer cells HCT-116, human lung cancer cells H-1299, human colon fibroblast cells CCD-18Co, and human lung fibroblast cells IMR-90 were plated in 96-well microtiter plates with 3000 cells/well and allowed to attach for 24 h at 37° C. […] After the cells were cultured for 48 h, the medium was aspirated and cells were treated with 200 μL fresh medium containing 2.41 mmol/L MTT. […] The reading reflected the number of viable cells and was expressed as a percentage of viable cells in the control. Both HCT-116 and H-1299 cells were cultured in McCoy's 5A medium. CCD-18Co and IMR-90 cells were cultured in Eagle's modified essential medium (EMEM). All of the above media were supplemented with 10% fetal bovine serum, 1% penicillin/streptomycin, and 1% glutamine, and the cells were kept in a 37° C. incubator with 95% humidity and 5% CO2.

[5] = test system: A549 cells; assay: Western blotting of apoptosis and p53 pathway markers; type: cell-based, human; settings: A549, 20 or 40 μM; for p53 levels (Western blot): 2 and 24 hours; for pro-apoptotic markers cytochrome C, cleaved caspase 3 and 9 (Western blot): 2 hours
Description: Cell extracts were prepared by incubating cells for 5 minutes on ice with RIPA (Radio-Immunoprecipitation Assay) buffer (Thermo Fisher Scientific, Rockford, Ill.) supplemented with a protease and phosphatase inhibitor mix. Cell lysate was then centrifuged at 13,000 rpm at 4° C. for 20 minutes, and supernatant was harvested for Western blot analysis. Briefly, 30-60 μg of protein extract were separated on a 10-16% polyacrylamide gel and transferred on PVDF (polyvinylidene difluoride) membrane (Biorad, Hercules, Calif.). Membrane was blocked using a 1% casein solution in TBS-Tween 20. Primary rabbit antibodies were diluted in blocking solution and incubated with the membrane overnight at 4° C. After washing the membrane with 3 changes of TBS-T, secondary Horse Radish Peroxydase (HRP)-conjugated anti-rabbit antibody was diluted 1:3000 in blocking solution and incubated with PVDF membrane for 1 hour at room temperature. […] Films were developed using a SRX-101A Konica Minolta developer (Tokyo, Japan). The experiment was repeated independently twice to confirm the results. Fold-induction of proteins calculated by normalizing the band of interest to the loading control (β-actin), and this adjusted intensity what compared to the control (DMSO) sample.

[6] = test system: HCT-116 cells; assay: TUNEL apoptosis assay (Part 2); type: cell-based, human; settings: HCT-116, 20 or 40 μM
Description: HCT-116 and H1299 cells were seeded in 6-well plates at 1×10^5 cells/well and incubated at 37° C. in 5% CO2 incubator. After 24 hours, fresh media supplemented with DMSO (control), [6]-shogaol, M2, M6, or M13 metabolites (20 μM or 40 μM) were added to the wells. After 6 or 24 hours incubation at 37° C. in 5% CO2 incubator, cells were washed and pre-treated for 15 min at room temperature with a solution of 20 μg/ml proteinase K. Cells were then washed twice with phosphate buffer saline pH 7.4 (PBS) and fixed for 10 min at room temperature using 10% neutral formaldehyde solution. After 2 washes in ddH2O, cells were resuspended in 100 μL ddH2O and applied on silanized microscope slides. Slides were incubated overnight at 37° C., and washed twice with PBS. TUNEL assay was then carried out according to the manufacturer's protocol. Cells were observed under 400× power using a Zeiss microscope A1 (Thornwood, N.Y.). 10 fields per slide were evaluated, and TUNEL+ cells (with brown coloration in the nucleus) were expressed as a percentage of the total number of cells contained in a field.

[7] = test system: human colon fibroblast cells CCD-18Co; assay: in vitro; type: cell-based
Description: as §1

| Compound | IC50 [1] | enrichment factor (small nucleosomes, ELISA) [2] | intracellular GSH levels ([3]; 2 hours) | GSH/GSSG ratio ([3]; 4 hours) | intracellular GSH levels ([3]; 8 hours) | GSH/GSSG ratio ([3]; 24 hours) | intracellular GSH levels compared to baseline ([3]; 24 hours) | IC50 [4] | p53 levels (Western blot) [5] | pro-apoptotic markers cytochrome C, cleaved caspase 3 and 9 (Western blot) [5] | induction of apoptosis (TUNEL) versus DMSO ([6]; 6 hours) | induction of apoptosis (TUNEL) versus DMSO ([6]; 24 hours) | IC50 [7] | IC50 ([1]; listed as 6S) | enrichment factor (cytoplasmic histone-associated DNA fragments, ELISA) ([2]; without pft) | GSH/GSSG ratio ([3]; 2 hours) |
| --- | --- | --- | --- | --- | --- | --- | --- | --- | --- | --- | --- | --- | --- | --- | --- | --- |
| CCCCCC(CC(=O)CCc1ccc(O)c(OC)c1)SC[C@H](N)C(=O)O (stereo partly drawn) [M2, 5-cysteinyl-[6]-shogaol] | 98.3 µM | 2 | significantly depleted | significantly lower | significantly higher | significantly higher | significantly increased | 98.3 µM | increase in p53 levels | elevated after 2 hours | higher levels of apoptosis | Apoptosis was observed | 99.2 µM |  |  |  |
| CCCCC/C=C/C(=O)CCc1ccc(O)c(OC)c1 [[6]-shogaol, reference compound] |  | about 1 | significantly depleted | significantly lower | significantly lower | significantly higher | significantly increased | 36.6 µM | increase in p53 levels | elevated after 2 hours | higher levels of apoptosis |  | 43.9 µM | 36.6 µM | 2.2 | significantly lower |
